According to patent US9108944B2, “Androgen receptor modulators and uses thereof” (ARAGON PHARMACEUTICALS, INC., priority 2010, dated 2015):
pIC50: −log10 of the molar value.

What was measured:
AR-VP16 [1] = target: T1, AR-VP16 (Homo sapiens, UniProt P10275); test: AR-VP16 DNA Binding Assay, agonist mode (HepG2 cells); format: cell-based; conditions: Emax >20x DMSO control = agonist
T1 sequence (P10275 560-920 limits assumed): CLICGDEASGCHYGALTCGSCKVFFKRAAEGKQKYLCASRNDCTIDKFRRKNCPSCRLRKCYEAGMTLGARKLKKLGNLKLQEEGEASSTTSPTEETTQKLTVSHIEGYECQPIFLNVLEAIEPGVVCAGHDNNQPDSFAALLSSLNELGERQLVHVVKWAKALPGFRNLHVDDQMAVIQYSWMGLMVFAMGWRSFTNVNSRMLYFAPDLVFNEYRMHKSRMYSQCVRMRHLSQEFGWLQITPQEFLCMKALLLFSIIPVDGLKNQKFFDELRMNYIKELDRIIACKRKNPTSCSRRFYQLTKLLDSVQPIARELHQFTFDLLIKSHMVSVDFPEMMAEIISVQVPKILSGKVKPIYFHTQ

AR-VP16 [2] = target: T1, AR-VP16; test: AR-VP16 DNA Binding Assay, antagonist mode (HepG2 cells, 0.1 nM R1881); format: cell-based
Summary of the method: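 HepG2 cells transiently transfected with AR-VP16 (Lipofectin), incubated overnight, then treated with compound in RPMI with charcoal-stripped serum. Antagonist mode adds R1881 at 0.1 nM final. Cells lysed after 48 h incubation for read-out.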

SMILES | ARVP16 DNA Binding Assay (Agonist mode): Agonist? (AR-VP16 [1]) | pIC50 (AR-VP16 [2])
Cc1cc(N2C(=O)C3(CCC3)N(c3ccc(OC4CCS(=O)(=O)CC4)cc3)C2=S)cnc1C#N [Compound 201, 5-(5-(4-((1,1-Dioxidotetrahydro-2H-thiopyran-4-yl)oxy)phenyl)-8-oxo-6-thioxo-5,7-diazaspiro[3.4]octan-7-yl)-3-methylpicolinonitrile] | No (Agonist defined as a compound whose Emax in the ARVP16 DNA Binding Assay (Agonist mode) is >20x DMSO control) | > 6.00
N#Cc1ncc(N2C(=O)C3(CCC3)N(c3ccc(F)c(OCCc4ccccn4)c3)C2=S)cc1C(F)(F)F [Compound 158, 5-(5-(4-Fluoro-3-(2-(pyridin-2-yl)ethoxy)phenyl)-8-oxo-6-thioxo-5,7-diazaspiro[3.4]octan-7-yl)-3-(trifluoromethyl)picolinonitrile] | No (Agonist defined as a compound whose Emax in the ARVP16 DNA Binding Assay (Agonist mode) is >20x DMSO control) | < 6.00
Cc1cc(N2C(=O)C3(CCC3)N(c3ccc(OC4CCN(CCO)CC4)cc3)C2=S)cnc1C#N [Compound 217, 5-(5-(4-((1-(2-Hydroxyethyl)piperidin-4-yl)oxy)phenyl)-8-oxo-6-thioxo-5,7-diazaspiro[3.4]octan-7-yl)-3-methylpicolinonitrile] | No (Agonist defined as a compound whose Emax in the ARVP16 DNA Binding Assay (Agonist mode) is >20x DMSO control) | > 6.00
CC(=O)N1CCC(Oc2ccc(N3C(=S)N(c4cnc(C#N)c(C)c4)C(=O)C34CCC4)cc2)CC1 [Compound 215, 5-(5-(4-((1-acetylpiperidin-4-yl)oxy)phenyl)-8-oxo-6-thioxo-5,7-diazaspiro[3.4]octan-7-yl)-3-methylpicolinonitrile] | Yes (Agonist defined as a compound whose Emax in the ARVP16 DNA Binding Assay (Agonist mode) is >20x DMSO control) | > 6.00
N#Cc1ncc(N2C(=O)C3(CCC3)N(c3ccc(OCCc4ccccc4)c(F)c3)C2=S)cc1C(F)(F)F [Compound 188, 5-(5-(3-Fluoro-4-phenethoxyphenyl)-8-oxo-6-thioxo-5,7-diazaspiro[3.4]octan-7-yl)-3-(trifluoromethyl)picolinonitrile] | No (Agonist defined as a compound whose Emax in the ARVP16 DNA Binding Assay (Agonist mode) is >20x DMSO control) | > 6.00
N#Cc1ncc(N2C(=O)C3(CCC3)N(c3ccc(F)c(OCCc4ccccc4)c3)C2=S)cc1C(F)(F)F [Compound 162, 5-(5-(4-Fluoro-3-phenethoxyphenyl)-8-oxo-6-thioxo-5,7-diazaspiro[3.4]octan-7-yl)-3-(trifluoromethyl)picolinonitrile] | No (Agonist defined as a compound whose Emax in the ARVP16 DNA Binding Assay (Agonist mode) is >20x DMSO control) | < 6.00
N#Cc1ncc(N2C(=O)C3(CCC3)N(c3ccc(F)c(OCCCc4ccccc4)c3)C2=S)cc1C(F)(F)F [Compound 163, 5-(5-(4-Fluoro-3-(3-phenylpropoxy)phenyl)-8-oxo-6-thioxo-5,7-diazaspiro[3.4]octan-7-yl)-3-(trifluoromethyl)picolinonitrile] | No (Agonist defined as a compound whose Emax in the ARVP16 DNA Binding Assay (Agonist mode) is >20x DMSO control) | < 6.00
CN1CCN(Cc2ccc(N3C(=S)N(c4cnc(C#N)c(C(F)(F)F)c4)C(=O)C34CCC4)cc2)CC1 [Compound 93, 5-(5-(4-((4-Methylpiperazin-1-yl)methyl)phenyl)-8-oxo-6-thioxo-5,7-diazaspiro[3.4]octan-7-yl)-3-(trifluoromethyl)picolinonitrile] | No (Agonist defined as a compound whose Emax in the ARVP16 DNA Binding Assay (Agonist mode) is >20x DMSO control) | < 6.00
N#Cc1ncc(N2C(=O)C3(CCC3)N(c3ccc(C(=O)NCc4cccc(Cl)c4)c(F)c3)C2=S)cc1C(F)(F)F [Compound 288, N-(3-Chlorobenzyl)-4-(7-(6-cyano-5-(trifluoromethyl)pyridin-3-yl)-8-oxo-6-thioxo-5,7-diazaspiro[3.4]octan-5-yl)-2-fluorobenzamide] | No (Agonist defined as a compound whose Emax in the ARVP16 DNA Binding Assay (Agonist mode) is >20x DMSO control) | > 6.00
N#Cc1ncc(N2C(=O)C3(CCC3)N(c3ccc(C(N)=O)c(F)c3)C2=S)cc1C(F)(F)F [Compound 231, 4-(7-(6-Cyano-5-(trifluoromethyl)pyridin-3-yl)-8-oxo-6-thioxo-5,7-diazaspiro[3.4]octan-5-yl)-2-fluorobenzamide] | No (Agonist defined as a compound whose Emax in the ARVP16 DNA Binding Assay (Agonist mode) is >20x DMSO control) | > 6.00
N#Cc1ncc(N2C(=O)C3(CCC3)N(c3ccc(C(F)(F)F)cc3)C2=S)cc1C(F)(F)F [Compound 46, 5-(8-Oxo-6-thioxo-5-(4-(trifluoromethyl)phenyl)-5,7-diazaspiro[3.4]octan-7-yl)-3-(trifluoromethyl)picolinonitrile] | No (Agonist defined as a compound whose Emax in the ARVP16 DNA Binding Assay (Agonist mode) is >20x DMSO control) | > 6.00
N#Cc1ncc(N2C(=O)C3(CCC3)N(c3ccc(OCCCSCCCC(F)(F)C(F)(F)F)c(F)c3)C2=S)cc1C(F)(F)F [Compound 153, 5-(5-(3-Fluoro-4-(3-((4,4,5,5,5-pentafluoropentyl)thio)propoxy)phenyl)-8-oxo-6-thioxo-5,7-diazaspiro[3.4]octan-7-yl)-3-(trifluoromethyl)picolinonitrile] | No (Agonist defined as a compound whose Emax in the ARVP16 DNA Binding Assay (Agonist mode) is >20x DMSO control) | > 6.00
CCOC(=O)CN1CCC(Oc2ccc(N3C(=S)N(c4cnc(C#N)c(C(F)(F)F)c4)C(=O)C34CCC4)cc2)CC1 [Compound 221, Ethyl 2-(4-(4-(7-(6-cyano-5-(trifluoromethyl)pyridin-3-yl)-8-oxo-6-thioxo-5,7-diazaspiro[3.4]octan-5-yl)phenoxy)piperidin-1-yl)acetate] | No (Agonist defined as a compound whose Emax in the ARVP16 DNA Binding Assay (Agonist mode) is >20x DMSO control) | < 6.00
CC(C)NC(=O)c1ccc(N2C(=S)N(c3cnc(C#N)c(C(F)(F)F)c3)C(=O)C23CCC3)cc1F [Compound 279, 4-(7-(6-Cyano-5-(trifluoromethyl)pyridin-3-yl)-8-oxo-6-thioxo-5,7-diazaspiro[3.4]octan-5-yl)-2-fluoro-N-isopropylbenzamide] | No (Agonist defined as a compound whose Emax in the ARVP16 DNA Binding Assay (Agonist mode) is >20x DMSO control) | > 6.00
N#Cc1ncc(N2C(=O)C3(CCC3)N(c3ccc(OCCN4CCS(=O)(=O)CC4)c(F)c3)C2=S)cc1C(F)(F)F [Compound 186, 5-(5-(4-(2-(1,1-Dioxidothiomorpholino)ethoxy)-3-fluorophenyl)-8-oxo-6-thioxo-5,7-diazaspiro[3.4]octan-7-yl)-3-(trifluoromethyl)picolinonitrile] | Yes (Agonist defined as a compound whose Emax in the ARVP16 DNA Binding Assay (Agonist mode) is >20x DMSO control) | > 6.00
N#Cc1ncc(N2C(=O)C3(CCC3)N(c3cccc(OC(F)(F)F)c3)C2=S)cc1C(F)(F)F [Compound 45, 5-(8-Oxo-6-thioxo-5-(3-(trifluoromethoxy)phenyl)-5,7-diazaspiro[3.4]octan-7-yl)-3-(trifluoromethyl)picolinonitrile] | No (Agonist defined as a compound whose Emax in the ARVP16 DNA Binding Assay (Agonist mode) is >20x DMSO control) | > 6.00
N#Cc1ncc(N2C(=O)C3(CCC3)N(c3ccc(C(=O)NCCc4cccnc4)c(F)c3)C2=S)cc1C(F)(F)F [Compound 244, 4-(7-(6-Cyano-5-(trifluoromethyl)pyridin-3-yl)-8-oxo-6-thioxo-5,7-diazaspiro[3.4]octan-5-yl)-2-fluoro-N-(2-(pyridin-3-yl)ethyl)benzamide] | No (Agonist defined as a compound whose Emax in the ARVP16 DNA Binding Assay (Agonist mode) is >20x DMSO control) | > 6.00
N#Cc1ncc(N2C(=O)C3(CCC3)N(c3ccc(F)c(OCCCN4CCOCC4)c3)C2=S)cc1C(F)(F)F [Compound 165, 5-(5-(4-Fluoro-3-(3-morpholinopropoxy)phenyl)-8-oxo-6-thioxo-5,7-diazaspiro[3.4]octan-7-yl)-3-(trifluoromethyl)picolinonitrile] | No (Agonist defined as a compound whose Emax in the ARVP16 DNA Binding Assay (Agonist mode) is >20x DMSO control) | < 6.00
N#Cc1ncc(N2C(=O)C3(CCC3)N(c3ccc(C(=O)NCCCO)c(F)c3)C2=S)cc1C(F)(F)F [Compound 306, 4-(7-(6-cyano-5-(trifluoromethyl)pyridin-3-yl)-8-oxo-6-thioxo-5,7-diazaspiro[3.4]octan-5-yl)-2-fluoro-N-(3-hydroxypropyl)benzamide] | No (Agonist defined as a compound whose Emax in the ARVP16 DNA Binding Assay (Agonist mode) is >20x DMSO control) | > 6.00
